From patent US6008356A, “Pharmaceutically available protoberberine salts derivatives, and protoberberine salts derivatives, and protoberberine derivatives and salts thereof” (priority 1998, dated 1999)
Values after ≈ are worked out from the molar mass of the structure shown. Like-named read-outs stand apart in the source and are kept apart here.

Tests used:
[1] = tested on: C. albicans IFO 1385; experiment: MIC; assay type: cell-based, Candida albicans
[2] = tested on: C. albicans ATCC 28838; experiment: MIC; assay type: cell-based, Candida albicans
[3] = tested on: C. albicans ATCC 11651; experiment: MIC; assay type: cell-based, Candida albicans
[4] = tested on: Epidermophyton floccosum; experiment: Antifungal efficacy of creamy formulation against local fungal skin infection; assay type: in vivo, mouse (SKH/1, hairless, male); details: topical
Method: Specific pathogen free SKH/1 male mouse(Hairless) of which weight is 30-35 g and age is 5 weeks, was reared with sterilized water and feed for 12 night/day in the condition of 21-23° C. and of 50% relative humidity. Five mice were allocated by each group. After skin infection, each mouse was taken in separate cage. The strain of microorganism for infection(Epidermophyton floccosum) was cultivated on a flat medium of SDA(Sabouraud Dextrose Agar) for 5-7 days and after confirmation of macrocomidia, 3 ml of RPMI (Rosewell Park Memorial Institute) 1640 media per each flat medium was added thereto and then scraped well using loop to remove hyphae from media. The floating liquid was suspended briefly and then diluted with RPMI 1640 media to adjust the concentration of hyphae to 2×10^6 CFU/ml. Mouse was anesthetized and marked on back site(lumbosacral area) in a shape of circle of which diameter is 1.5 cm. Then, the inner part of marked skin was scratched with sand paper. The scratched part was covered with a filter paper to preserve inoculated microorganism for a long time and thereby stimulating the skin continuously. 0.2 ml of fungus solution of which concentration is adjusted as described above, was inoculated between the skin and filter paper. 5 Days after the inoculation, the filter paper was removed and the infection of skin was examined. The test formulations, 0.5% creamy formulations of the compounds Nos. 62 and 85, 1.0% creamy formulation of Terbinafine(Lamisile cream) and a placebo was applied on the infected areas in a same amount once a day for 5 days. The clinical evaluation on the change of the infected area in 5 days after the inoculation was performed and expressed numerically from 0 to 4. The daily change of the infected area was checked every day. The result of each group was compared with each other.
1: Mild erythema or small number of skin eruption
2: Well-demarcated erythema with scales or mild skin eruption of infected area
3: Wide area of marked skin eruption, scales, swelling or severe skin eruption with partial swelling and scales
4: The same as those of control, or severe skin eruption in entire lesion
The result was calculated as follows;
T: Average score of clinical evaluation in drug treated area
K: Average score of clinical evaluation in placebo control group
Moreover, the antifungal efficacies of the 0.5% creamy formulation of the compounds Nos. 29, 35, 60, 62, 63 and 85, and 1% creamy formulation of Terbinafme (Lamisil cream), which are measured by applying the above formulations on the skin infected with Epidermophyton floccosum of mouse which is the standard animal for the test of local fungal skin infection, i.e, Specific Pathogen Free SKH/1, are described in the following Table 4.

[5] = tested on: C. albicans OY 003; experiment: MIC; assay type: cell-based, Candida albicans
[6] = tested on: C. albicans KCTC 1940; experiment: MIC; assay type: cell-based, Candida albicans
[7] = tested on: C. albicans OY 019; experiment: MIC; assay type: cell-based, Candida albicans
[8] = tested on: C. krusei; experiment: MIC; assay type: cell-based; details: Pichia kudriavzevii
[9] = tested on: E. floccosum; experiment: MIC; assay type: cell-based, Epidermophyton floccosum
[10] = tested on: C. glulliermendi; experiment: MIC; assay type: cell-based
[11] = tested on: C. parapsilosis; experiment: MIC; assay type: cell-based; details: Lodderomyces parapsilosis
[12] = tested on: C. albicans ATCC 10231; experiment: MIC; assay type: cell-based; details: Candida albicans, ATCC10231
[13] = tested on: C. albicans U.K.; experiment: MIC; assay type: cell-based; details: Candida albicans
[14] = tested on: C. glabrata; experiment: MIC; assay type: cell-based; details: Nakaseomyces glabratus
[15] = Candida albicans, IFO1385, C. albicans IFO 1385, read-out: MIC
[16] = Candida albicans, ATCC28838, C. albicans ATCC 28838, read-out: MIC
[17] = Candida albicans, ATCC11651, C. albicans ATCC 11651, read-out: MIC
[18] = Candida albicans, OY003, C. albicans OY 003, read-out: MIC
[19] = Candida albicans, KCTC1940, C. albicans KCTC 1940, read-out: MIC
[20] = Candida albicans, OY019, C. albicans OY 019, read-out: MIC

COc1cc(Cc2c3[n+](cc4c(OC)c(OC)ccc24)CCc2cc4c(cc2-3)OCO4)cc(OC)c1OC [compound 29, 13-(3,4,5-trimethoxybenzyl)berberine chloride]
MIC [1, 15]: 25 µg/mL
MIC [2, 16]: 3.12 µg/mL
MIC [3, 17]: 1.56 µg/mL
Efficacy (%) 0 day later ([4]; 0.5% cream): 0%
Efficacy (%) 1 day later ([4]; 0.5% cream): 30.0%
Efficacy (%) 2 day later ([4]; 0.5% cream): 33.4%
Efficacy (%) 3 day later ([4]; 0.5% cream): 34.6%
Efficacy (%) 4 day later ([4]; 0.5% cream): 48.0%
Efficacy (%) 5 day later ([4]; 0.5% cream): 56.4%
Efficacy (%) 6 day later ([4]; 0.5% cream): 63.0%
Efficacy (%) 7 day later ([4]; 0.5% cream): 65.8%
MIC [5, 18]: 6.25 µg/mL
MIC [6, 19]: 1.56 µg/mL
MIC [7, 20]: 6.25 µg/mL

COc1ccc2c(Cc3ccc(C)c(C)c3)c3[n+](cc2c1OC)CCc1cc2c(cc1-3)OCO2 [compound 18, 13-(3,4-dimethylbenzyl)berberine chloride]
MIC [1, 15]: 12.5 µg/mL
MIC [2, 16]: 3.12 µg/mL
MIC [3, 17]: 3.12 µg/mL
MIC [5, 18]: 6.25 µg/mL
MIC [6, 19]: 6.25 µg/mL
MIC [7, 20]: 6.25 µg/mL

CN(C/C=C/C#CC(C)(C)C)Cc1cccc2ccccc12 [Terbinabin, Terbinafine, reference compound]
Efficacy (%) 0 day later ([4]; 1.0% cream): 0%
Efficacy (%) 1 day later ([4]; 1.0% cream): 40.0%
Efficacy (%) 2 day later ([4]; 1.0% cream): 57.9%
Efficacy (%) 3 day later ([4]; 1.0% cream): 68.4%
Efficacy (%) 4 day later ([4]; 1.0% cream): 70.2%
Efficacy (%) 5 day later ([4]; 1.0% cream): 71.4%
Efficacy (%) 6 day later ([4]; 1.0% cream): 73.4%
Efficacy (%) 7 day later ([4]; 1.0% cream): 75.7%

C=Cc1ccc(Cc2c3[n+](cc4c(OC)c(OC)ccc24)CCc2cc4c(cc2-3)OCO4)cc1 [compound 60, 13-(4-vinylbenzyl)berberine chloride]
MIC [1, 15]: 25 µg/mL
MIC [2, 16]: 3.12 µg/mL
MIC [3, 17]: 6.25 µg/mL
Efficacy (%) 0 day later ([4]; 0.5% cream): 0%
Efficacy (%) 1 day later ([4]; 0.5% cream): 20.0%
Efficacy (%) 2 day later ([4]; 0.5% cream): 32.0%
Efficacy (%) 3 day later ([4]; 0.5% cream): 36.0%
Efficacy (%) 4 day later ([4]; 0.5% cream): 48.6%
Efficacy (%) 5 day later ([4]; 0.5% cream): 51.5%
Efficacy (%) 6 day later ([4]; 0.5% cream): 58.6%
Efficacy (%) 7 day later ([4]; 0.5% cream): 60.5%
MIC [5, 18]: 6.25 µg/mL
MIC [6, 19]: 6.25 µg/mL
MIC [7, 20]: 12.5 µg/mL

COc1cc2c(cc1OC)-c1c(Cc3ccc(C(C)(C)C)cc3)c3ccc(OC)c(OC)c3c[n+]1CC2 [compound 77, 13-(4-t-butylbenzyl)palmatine iodide]
MIC [1, 15]: 3.12 µg/mL
MIC [2, 16]: 0.78 µg/mL
MIC [3, 17]: 0.78 µg/mL
MIC [5, 18]: 0.78 µg/mL
MIC [6, 19]: 1.56 µg/mL
MIC [7, 20]: 1.56 µg/mL

COc1ccc2c(Cc3cccc(Oc4ccccc4)c3)c3[n+](cc2c1OC)CCc1cc2c(cc1-3)OCO2 [compound 58, 13-(3-phenoxybenzyl)berberine chloride]
MIC [1, 15]: 25 µg/mL
MIC [2, 16]: 3.12 µg/mL
MIC [3, 17]: 12.5 µg/mL
MIC [5, 18]: 6.25 µg/mL
MIC [6, 19]: 12.5 µg/mL
MIC [7, 20]: 12.5 µg/mL

C[C@@H]1[C@H](O)[C@@H](C)/C=C/C=C/C=C/C=C/C=C/C=C/C=C/[C@H](O[C@@H]2O[C@H](C)[C@@H](O)[C@H](N)[C@@H]2O)C[C@@H]2O[C@](O)(C[C@@H](O)C[C@@H](O)[C@H](O)CC[C@@H](O)C[C@@H](O)CC(=O)O[C@H]1C)C[C@H](O)[C@H]2C(=O)O [Amphotericin B, reference compound]
MIC ([1]; Candida albicans, IFO1385): 1.56 µg/mL (≈ 1.69 µM)
MIC [8]: 0.78 µg/mL (≈ 0.844 µM)
MIC ([9]; Epidermophyton floccosum): 12.5 µg/mL (≈ 13.5 µM)
MIC ([2]; Candida albicans, ATCC28838): 3.12 µg/mL (≈ 3.38 µM)
MIC ([3]; Candida albicans, ATCC11651): 1.56 µg/mL (≈ 1.69 µM)
MIC [10]: 1.56 µg/mL (≈ 1.69 µM)
MIC [11]: 3.12 µg/mL (≈ 3.38 µM)
MIC [12]: 1.56 µg/mL (≈ 1.69 µM)
MIC [13]: 3.12 µg/mL (≈ 3.38 µM)
MIC ([5]; Candida albicans, OY003): 0.78 µg/mL (≈ 0.844 µM)
MIC [14]: 1.56 µg/mL (≈ 1.69 µM)
MIC ([6]; Candida albicans, KCTC1940): 0.78 µg/mL (≈ 0.844 µM)
MIC ([7]; Candida albicans, OY019): 0.4 µg/mL (≈ 0.433 µM)

COc1ccc2c(Cc3ccc(OC(F)(F)F)cc3)c3[n+](cc2c1OC)CCc1cc2c(cc1-3)OCO2 [compound 31, 13-(4-trifluoromethoxybenzyl) berberine chloride]
MIC [1, 15]: 3.12 µg/mL
MIC [2, 16]: 0.78 µg/mL
MIC [3, 17]: 1.56 µg/mL
MIC [5, 18]: 1.56 µg/mL
MIC [6, 19]: 1.56 µg/mL
MIC [7, 20]: 1.56 µg/mL

Clc1ccc(COC(Cn2ccnc2)c2ccc(Cl)cc2Cl)c(Cl)c1 (stereo not shown) [Miconazole, reference compound]
MIC ([1]; Candida albicans, IFO1385): 3.12 µg/mL (≈ 7.51 µM)
MIC [8]: 3.12 µg/mL (≈ 7.51 µM)
MIC ([9]; Epidermophyton floccosum): 6.25 µg/mL (≈ 15 µM)
MIC ([2]; Candida albicans, ATCC28838): 0.78 µg/mL (≈ 1.87 µM)
MIC ([3]; Candida albicans, ATCC11651): 3.12 µg/mL (≈ 7.51 µM)
MIC [10]: 3.12 µg/mL (≈ 7.51 µM)
MIC [11]: 3.12 µg/mL (≈ 7.51 µM)
MIC [12]: 6.25 µg/mL (≈ 15 µM)
MIC [13]: > 100 µg/mL
MIC ([5]; Candida albicans, OY003): 1.56 µg/mL (≈ 3.75 µM)
MIC [14]: > 100 µg/mL
MIC ([6]; Candida albicans, KCTC1940): 1.56 µg/mL (≈ 3.75 µM)
MIC ([7]; Candida albicans, OY019): 1.56 µg/mL (≈ 3.75 µM)

COc1ccc2c(Cc3ccc(C(C)(C)C)cc3)c3[n+](c(O)c2c1OC)CCc1cc2c(cc1-3)OCO2.[Cl-] [compound 64, 8-hydroxy-13-(4-t-butylbenzyl) berberine chloride]
MIC ([1]; C. albicans IFO 1385): 25 µg/mL
MIC ([9]; E. floccosum): > 100 µg/mL
MIC ([2]; C. albicans ATCC 28838): 3.125 µg/mL
MIC ([3]; C. albicans ATCC 11651): 3.125 µg/mL
MIC ([5]; C. albicans OY 003): 6.25 µg/mL
MIC ([6]; C. albicans KCTC 1940): 12.5 µg/mL
MIC ([7]; C. albicans OY 019): 0.4 µg/mL

CCC(C)n1ncn(-c2ccc(N3CCN(c4ccc(OCC5COC(Cn6cncn6)(c6ccc(Cl)cc6Cl)O5)cc4)CC3)cc2)c1=O (stereo not shown) [Itraconazole, reference compound]
MIC ([1]; Candida albicans, IFO1385): > 100 µg/mL
MIC ([9]; Epidermophyton floccosum): 50 µg/mL (≈ 70.9 µM)
MIC ([2]; Candida albicans, ATCC28838): > 100 µg/mL
MIC ([3]; Candida albicans, ATCC11651): > 100 µg/mL
MIC ([5]; Candida albicans, OY003): > 100 µg/mL
MIC ([6]; Candida albicans, KCTC1940): > 100 µg/mL
MIC ([7]; Candida albicans, OY019): > 100 µg/mL
